Laboratory results published in the supplement of paper PMC11061612.

Columns and labels:
AZD1775 = compound: C=CCn1c(=O)c2cnc(Nc3ccc(N4CCN(C)CC4)cc3)nc2n1-c1cccc(C(C)(C)O)n1 [AZD1775]; conditions: max 3 µM
In short: (§1)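 Plates with 1536 wells received cancer cell lines in 7.5 μl of DMEM/F12 or RPMI containing 10% FBS. After 24 hours at 37°C and 5% CO2, cells were dosed for 72 hours with final DMSO typically 0.2%, and viability was read by CellTiter-Glo 2.0 luminescence scaled between blank-well and DMSO-well means. The single-agent IC50 was taken from a logistic fit of the dose responses made with a non-linear mixed effects model, that logistic curve having two parameters.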

SRA737 = compound: N#Cc1cnc(Nc2cc(NC[C@H]3CNCCO3)c(C(F)(F)F)cn2)cn1 [SRA737]; conditions: max 10 µM
In short: as §1

Lapatinib = compound: CS(=O)(=O)CCNCc1ccc(-c2ccc3ncnc(Nc4ccc(OCc5cccc(F)c5)c(Cl)c4)c3c2)o1 [Lapatinib]; conditions: max 10 µM
In short: as §1

AZD4320 = compound: CN(CC[C@H](CSC1=CC=CC=C1)NC2=C(C=C(C=C2)S(=O)(=O)NC(=O)C3=CC=C(C=C3)N4CCC(CC4)[C@H](C5=CC=CC=C5C6=CC=C(C=C6)Cl)O)S(=O)(=O)C(F)(F)F)CCO [AZD4320]; conditions: max 1 µM
In short: as §1

SN-38 = compound: CCc1c2c(nc3ccc(O)cc13)-c1cc3c(c(=O)n1C2)COC(=O)[C@]3(O)CC [SN-38]; conditions: max 0.3 µM
In short: as §1

Carboplatin = compound: C1CC(C1)(C(=O)[O-])C(=O)[O-].N.N.[Pt+2] [Carboplatin]; conditions: max 10 µM
In short: as §1

Gefitinib = compound: COc1cc2ncnc(Nc3ccc(F)c(Cl)c3)c2cc1OCCCN1CCOCC1 [Gefitinib]; conditions: max 10 µM
In short: as §1

Palbociclib = compound: CC(=O)c1c(C)c2cnc(Nc3ccc(N4CCNCC4)cn3)nc2n(C2CCCC2)c1=O [Palbociclib]; conditions: max 10 µM
In short: as §1

Dasatinib = compound: CC1=C(C(=CC=C1)Cl)NC(=O)C2=CN=C(S2)NC3=CC(=NC(=N3)C)N4CCN(CC4)CCO [Dasatinib]; conditions: max 2 µM
In short: as §1

Trametinib = compound: CC(=O)Nc1cccc(-n2c(=O)n(C3CC3)c(=O)c3c(Nc4ccc(I)cc4F)n(C)c(=O)c(C)c32)c1 [Trametinib]; conditions: max 1 µM
In short: as §1

AZD5363 = compound: C1CN(CCC1(C(=O)N[C@@H](CCO)C2=CC=C(C=C2)Cl)N)C3=NC=NC4=C3C=CN4 [AZD5363]; conditions: max 10 µM
In short: as §1

AZD5153 = compound: COc1nnc2ccc(N3CCC(c4ccc(OCCN5CCN(C)C(=O)[C@H]5C)cc4)CC3)nn12 [AZD5153]; conditions: max 1 µM
In short: as §1

MK-2206 = compound: NC1(c2ccc(-c3nc4ccn5c(=O)[nH]nc5c4cc3-c3ccccc3)cc2)CCC1 [MK-2206]; conditions: max 10 µM
In short: as §1

AZD1390 = compound: CC(C)n1c(=O)n(C)c2cnc3cc(F)c(-c4ccc(OCCCN5CCCCC5)nc4)cc3c21 [AZD1390]; conditions: max 0.3 µM
In short: as §1

Olaparib = compound: O=C(c1cc(Cc2n[nH]c(=O)c3ccccc23)ccc1F)N1CCN(C(=O)C2CC2)CC1 [Olaparib]; conditions: max 10 µM
In short: as §1

[1] = compound: O=C(Nc1ccc2[nH]nc(-c3ccncc3)c2c1)[C@@H]1CCN(CC(=O)N2CCN(c3ccc(-c4ncccn4)cc3)CC2)C1; conditions: max 5 µM
In short: as §1

Savolitinib = compound: C[C@@H](c1ccc2nccn2c1)n1nnc2ncc(-c3cnn(C)c3)nc21 [Savolitinib]; conditions: max 1 µM
In short: as §1

Selumetinib = compound: Cn1cnc2c(F)c(Nc3ccc(Br)cc3Cl)c(C(=O)NOCCO)cc21 [Selumetinib]; conditions: max 10 µM
In short: as §1

Etoposide = compound: COc1cc([C@@H]2c3cc4c(cc3[C@@H](O[C@@H]3O[C@@H]5CO[C@@H](C)O[C@H]5[C@H](O)[C@H]3O)[C@H]3COC(=O)[C@H]23)OCO4)cc(OC)c1O [Etoposide]; conditions: max 10 µM
In short: as §1

Crizotinib = compound: C[C@@H](Oc1cc(-c2cnn(C3CCNCC3)c2)cnc1N)c1c(Cl)ccc(F)c1Cl [Crizotinib]; conditions: max 10 µM
In short: as §1

AZD7648 = compound: Cc1cc2ncnn2cc1Nc1ncc2c(n1)n(C1CCOCC1)c(=O)n2C [AZD7648]; conditions: max 10 µM
In short: as §1

AZD2811 = compound: CCN(CCO)CCCOc1ccc2c(Nc3cc(CC(=O)Nc4cccc(F)c4)[nH]n3)ncnc2c1 [AZD2811]; conditions: max 1 µM
In short: as §1

Gemcitabine = compound: Nc1ccn([C@@H]2O[C@H](CO)[C@@H](O)C2(F)F)c(=O)n1 [Gemcitabine]; conditions: max 0.3 µM
In short: as §1

Venetoclax = compound: CC1(C)CCC(CN2CCN(c3ccc(C(=O)NS(=O)(=O)c4ccc(NCC5CCOCC5)c([N+](=O)[O-])c4)c(Oc4cnc5[nH]ccc5c4)c3)CC2)=C(c2ccc(Cl)cc2)C1 [Venetoclax]; conditions: max 1 µM
In short: as §1

Doxorubicin = compound: COc1cccc2c1C(=O)c1c(O)c3c(c(O)c1C2=O)C[C@@](O)(C(=O)CO)C[C@@H]3O[C@H]1C[C@H](N)[C@H](O)[C@H](C)O1 [Doxorubicin]; conditions: max 1 µM
In short: as §1

AZD8186 = compound: C[C@@H](Nc1cc(F)cc(F)c1)c1cc(C(=O)N(C)C)cc2c(=O)cc(N3CCOCC3)oc12 [AZD8186]; conditions: max 10 µM
In short: as §1

Prexasertib = compound: COc1cccc(OCCCN)c1-c1cc(Nc2cnc(C#N)cn2)n[nH]1 [Prexasertib]; conditions: max 1 µM
In short: as §1

SG3199 = compound: CC1=CN2[C@@H](C1)C=NC3=CC(=C(C=C3C2=O)OC)OCCCCCOC4=C(C=C5C(=C4)N=C[C@@H]6CC(=CN6C5=O)C)OC [SG3199]; conditions: max 0.001 µM
In short: as §1

Alisertib = compound: COc1cc(Nc2ncc3c(n2)-c2ccc(Cl)cc2C(c2c(F)cccc2OC)=NC3)ccc1C(=O)O [Alisertib]; conditions: max 10 µM
In short: as §1

AZD5991 = compound: Cc1c2c(nn1C)CSCc1cc(n(C)n1)CSc1cc(c3ccccc3c1)OCCCc1c(C(=O)O)n(C)c3c-2c(Cl)ccc13 [AZD5991]; conditions: max 1 µM
In short: as §1

AZD0156 = compound: CN(C)CCCOc1ccc(-c2ccc3ncc4c(c3c2)n(C2CCOCC2)c(=O)n4C)cn1 [AZD0156]; conditions: max 3 µM
In short: as §1

Paclitaxel = compound: CC(=O)O[C@H]1C(=O)[C@@]2(C)[C@H]([C@H](OC(=O)c3ccccc3)[C@]3(O)C[C@H](OC(=O)[C@H](O)[C@@H](NC(=O)c4ccccc4)c4ccccc4)C(C)=C1C3(C)C)[C@]1(OC(C)=O)CO[C@@H]1C[C@@H]2O [Paclitaxel]; conditions: max 3 µM
In short: as §1

5-Fluorouracil = compound: O=c1[nH]cc(F)c(=O)[nH]1 [5-Fluorouracil]; conditions: max 20 µM
In short: as §1

Taselisib = compound: Cc1nc(-c2cn3c(n2)-c2ccc(-c4cnn(C(C)(C)C(N)=O)c4)cc2OCC3)n(C(C)C)n1 [Taselisib]; conditions: max 10 µM
In short: as §1

AZD6738 = compound: C[C@@H]1COCCN1C2=NC(=NC(=C2)C3(CC3)[S@](=N)(=O)C)C4=C5C=CNC5=NC=C4 [AZD6738]; conditions: max 10 µM
In short: as §1

| Cell Line | IC50, cell viability 72 h (AZD1775) | IC50, cell viability 72 h (SRA737) | IC50, cell viability 72 h (Lapatinib) | IC50, cell viability 72 h (AZD4320) | IC50, cell viability 72 h (SN-38) | IC50, cell viability 72 h (Carboplatin) | IC50, cell viability 72 h (Gefitinib) | IC50, cell viability 72 h (Palbociclib) | IC50, cell viability 72 h (Dasatinib) | IC50, cell viability 72 h (Trametinib) | IC50, cell viability 72 h (AZD5363) | IC50, cell viability 72 h (AZD5153) | IC50, cell viability 72 h (MK-2206) | IC50, cell viability 72 h (AZD1390) | IC50, cell viability 72 h (Olaparib) | IC50, cell viability 72 h [1] | IC50, cell viability 72 h (Savolitinib) | IC50, cell viability 72 h (Selumetinib) | IC50, cell viability 72 h (Etoposide) | IC50, cell viability 72 h (Crizotinib) | IC50, cell viability 72 h (AZD7648) | IC50, cell viability 72 h (AZD2811) | IC50, cell viability 72 h (Gemcitabine) | IC50, cell viability 72 h (Venetoclax) | IC50, cell viability 72 h (Doxorubicin) | IC50, cell viability 72 h (AZD8186) | IC50, cell viability 72 h (Prexasertib) | IC50, cell viability 72 h (SG3199) | IC50, cell viability 72 h (Alisertib) | IC50, cell viability 72 h (AZD5991) | IC50, cell viability 72 h (AZD0156) | IC50, cell viability 72 h (Paclitaxel) | IC50, cell viability 72 h (5-Fluorouracil) | IC50, cell viability 72 h (Taselisib) | IC50, cell viability 72 h (AZD6738) |
| --- | --- | --- | --- | --- | --- | --- | --- | --- | --- | --- | --- | --- | --- | --- | --- | --- | --- | --- | --- | --- | --- | --- | --- | --- | --- | --- | --- | --- | --- | --- | --- | --- | --- | --- | --- |
| NAMALWA (Burkitt's Lymphoma) | 300 nM | 1670 nM | > 10000 nM | > 1000 nM | 2.63 nM | > 10000 nM | > 10000 nM | 9880 nM | > 2000 nM | > 1000 nM | 9010 nM | 43.1 nM | 8200 nM | > 300 nM | > 10000 nM | > 5000 nM | > 1000 nM | > 10000 nM | 272 nM | 2320 nM | > 10000 nM | > 1000 nM | 6.04 nM | > 1000 nM | 41.4 nM | 7520 nM | 10.5 nM | > 1 nM | 689 nM | 61.1 nM | > 3000 nM | 4.84 nM | 14500 nM | 2020 nM | 1140 nM |
| NCI-H226 (Mesothelioma) | > 3000 nM | > 10000 nM | > 10000 nM | > 1000 nM | > 300 nM | > 10000 nM | > 10000 nM | > 10000 nM | > 2000 nM | > 1000 nM | > 10000 nM | > 1000 nM | > 10000 nM | > 300 nM | > 10000 nM | > 5000 nM | > 1000 nM | > 10000 nM | > 10000 nM | > 10000 nM | > 10000 nM | > 1000 nM | > 300 nM | > 1000 nM | > 1000 nM | > 10000 nM | > 1000 nM | > 1 nM | > 10000 nM | > 1000 nM | > 3000 nM | > 3000 nM | > 20000 nM | > 10000 nM | > 10000 nM |
| NCI-H3118 (Head and Neck Carcinoma) | 191 nM | > 10000 nM | 4490 nM | > 1000 nM | 277 nM | > 10000 nM | 1970 nM | > 10000 nM | 309 nM | 120 nM | > 10000 nM | 684 nM | > 10000 nM | > 300 nM | > 10000 nM | 912 nM | > 1000 nM | 3090 nM | 5670 nM | > 10000 nM | > 10000 nM | > 1000 nM | 64.1 nM | > 1000 nM | > 1000 nM | > 10000 nM | 39.3 nM | > 1 nM | > 10000 nM | > 1000 nM | > 3000 nM | 15 nM | > 20000 nM | 1060 nM | > 10000 nM |
| RCC-JW (Kidney Carcinoma) | 1600 nM | > 10000 nM | 7530 nM | 895 nM | 157 nM | > 10000 nM | > 10000 nM | > 10000 nM | 85.1 nM | > 1000 nM | > 10000 nM | > 1000 nM | > 10000 nM | > 300 nM | > 10000 nM | > 5000 nM | > 1000 nM | > 10000 nM | > 10000 nM | > 10000 nM | > 10000 nM | > 1000 nM | 61.7 nM | > 1000 nM | > 1000 nM | 5130 nM | > 1000 nM | > 1 nM | > 10000 nM | > 1000 nM | > 3000 nM | 109 nM | > 20000 nM | > 10000 nM | > 10000 nM |
| SCC-4 (Oral Cavity Carcinoma) | > 3000 nM | > 10000 nM | > 10000 nM | > 1000 nM | 53 nM | > 10000 nM | > 10000 nM | > 10000 nM | > 2000 nM | > 1000 nM | > 10000 nM | > 1000 nM | > 10000 nM | > 300 nM | > 10000 nM | > 5000 nM | > 1000 nM | > 10000 nM | > 10000 nM | > 10000 nM | > 10000 nM | > 1000 nM | 272 nM | > 1000 nM | > 1000 nM | > 10000 nM | 154 nM | > 1 nM | 9220 nM | > 1000 nM | > 3000 nM | 11.5 nM | > 20000 nM | 1940 nM | 9010 nM |
